From patent publication US6534523B1, “Hepatitis C inhibitor tri-peptides” (Boehringer Ingelheim (Canada) Ltd., priority 1998, dated 2003)
Where two headings read alike, the source gives them in different places.

Tests used:
Type in all cases: biochemical, HCV genotype 1b
HCV NS3 protease [1] = molecular target: HCV NS3 protease (UniProt P26663); settings: read-out: activity / potency (HCV NS3 protease inhibition); text comparison of P1 configuration
Procedure: (§1) Recombinant HCV NS3 Protease/NS4A Cofactor Peptide Radiometric Assay
(§2) The enzyme was cloned, expressed and prepared according to the protocol described in Example 36. The enzyme was stored at −80° C., thawed on ice and diluted just prior to use in the assay buffer containing the NS4A cofactor peptide.
(§3) The substrate used for the NS3 protease/NS4A cofactor peptide radiometric assay, DDIVPC-SMSYTW, is cleaved between the cysteine and the serine residues by the enzyme. The sequence DDIVPC-SMSYTW corresponds to the NS5A/NS5B natural cleavage site in which the cysteine residue in P2 has been substituted for a proline. […] (molar ratio enzyme:cofactor 1:100) in the absence or presence of inhibitors. The separation of substrate from products is performed by adding avidin-coated agarose beads to the assay mixture followed by filtration. […]
(§4) The NS2-NS5B-3′ non coding region was cloned by RT-PCR into the pCR®3 vector (Invitrogen) using RNA extracted from the serum of an HCV genotype 1b infected individual (provided by Dr. Bernard Willems, Hôpital St-Luc, Montréal, Québec, Canada). […] Fluorescence of the N-terminal product was monitored on a Perkin-Elmer LS-50B fluorometer equipped with a 96-well plate reader (excitation wavelength: 325 nm; emission wavelength: 423 nm). […]

HCV NS3 protease [2] = molecular target: HCV NS3 protease (UniProt P26663); set-up: rows headed: difference in potency between (1R,2S) compound and its (1S,2S) isomer; other: 801 vs. corresponding (1S,2S) isomer; settings: 801 vs. corresponding (1S,2S) isomer
Procedure: as §1, §2, §3, §4

HCV NS3 protease [3] = molecular target: HCV NS3 protease (UniProt P26663); set-up: rows headed: IC50 (μM); IC50 (μM)

Chain of HCV NS3 protease (P26663 1027-1206, other chains not shown): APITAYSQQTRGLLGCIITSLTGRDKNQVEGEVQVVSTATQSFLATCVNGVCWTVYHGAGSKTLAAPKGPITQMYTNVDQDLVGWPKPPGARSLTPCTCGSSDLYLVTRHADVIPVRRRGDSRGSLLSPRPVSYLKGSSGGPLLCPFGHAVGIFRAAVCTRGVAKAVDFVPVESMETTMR

Row | SMILES | IC50 (HCV NS3 protease [3]; Table 9) [nM] | also measured
1 | C=CC1CC1(NC(=O)C1CC(Oc2cc(-c3ccccc3)nc3cc(OC)ccc23)CN1C(=O)C(NC(=O)NC(C)(C)C)C(C)(C)C)C(=O)O (centres unmarked) [compound 801] | – | IC50 (HCV NS3 protease [1]): 6 nM; difference in potency between (1R,2S) compound and its (1S,2S) isomer (HCV NS3 protease [2]): over 1500 fold; IC50 (HCV NS3 protease [3]; Table 8): 6 nM
2 | C=CC1CC1(NC(=O)C1CC(Oc2cc(-c3ccccc3)nc3cc(OC)ccc23)CN1C(=O)C(NC(=O)OC(C)(C)C)C(C)(C)C)C(=O)O (centres unmarked) [compound 901] | 25 | IC50 (HCV NS3 protease [1]): 25 nM
3 | C=CC1CC1(NC(=O)C1CC(Oc2cc(-c3ccccc3)nc3cc(OC)ccc23)CN1C(=O)C(NC(=O)OC(C)C(C)(C)C)C(C)(C)C)C(=O)O (centres unmarked) [compound 910] | 56 | –
4 | C=CC1CC1(NC(=O)C1CC(Oc2cc(-c3ccccc3)nc3cc(OC)ccc23)CN1C(=O)C(NC(=O)c1cccc(O)c1C)C(C)(C)C)C(=O)O (centres unmarked) [compound 911] | 39 | –
5 | C=CC1CC1(NC(=O)C1CC(Oc2cc(-c3ccccc3)nc3cc(OC)ccc23)CN1C(=O)C(NS(=O)(=O)c1cccs1)C(C)(C)C)C(=O)O (centres unmarked) [compound 912] | 34 | –
6 | C=CC1CC1(NC(=O)C1CC(Oc2cc(-c3ccccc3)nc3cc(OC)ccc23)CN1C(=O)C(NC(=O)Nc1nccs1)C(C)(C)C)C(=O)O (centres unmarked) [compound 913] | 30 | –
7 | C=CC1CC1(NC(=O)C1CC(Oc2cc(-c3ccccc3)nc3cc(OC)ccc23)CN1C(=O)C(NS(=O)(=O)c1sc(NC(C)=O)nc1C)C(C)(C)C)C(=O)O (centres unmarked) [compound 914] | 31 | –
8 | C=CC1CC1(NC(=O)C1CC(Oc2cc(-c3ccccc3)nc3cc(OC)ccc23)CN1C(=O)C(NC(=O)c1ccc[nH]1)C(C)(C)C)C(=O)O (centres unmarked) [compound 916] | 300 | –
